Experimental data reported in PubChem BioAssay AID2060500 (Molecular Pharmacology Branch, DTP, NCI, 2025).

Tested on: 596521-263-R-J1-PDC complex spheroids, viability % of control
Test: Anticancer human tumor 596521-263-R-J1-PDC patient-derived soft tissue sarcoma cell line growth inhibition [GQUAD]
Conditions: for IC50: curve of first compound; for viability, T/C: stronger effect = lower value; active means viability on the fitted dose curve at most 10% of control; inactive means the rest
Method in brief: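 Multi-cell-type spheroids of tumor cells with HUVEC and mesenchymal stem cells, treated with drug combinations. Concentrations descend in half-log steps from near clinical Cmax, or from 10 microM where Cmax is unknown; viability read-out.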

[1] = second compound 0.0316 µM, first compound 0.0316 µM
[2] = second compound 0.0316 µM, first compound 0.316 µM
[3] = second compound 0.1 µM, first compound 0.0316 µM
[4] = second compound 0.1 µM, first compound 0.316 µM
[5] = second compound 0.316 µM, first compound 0.0316 µM
[6] = second compound 0.316 µM, first compound 0.316 µM
[7] = second compound 1 µM, first compound 0.0316 µM
[8] = second compound 1 µM, first compound 0.316 µM
[9] = second compound 3.16 µM, first compound 0.0316 µM
[10] = second compound 3.16 µM, first compound 0.316 µM
[11] = second compound 10 µM, first compound 0.0316 µM
[12] = second compound 10 µM, first compound 0.316 µM
[13] = second compound 0.0316 µM, first compound 0.000999 µM
[14] = second compound 0.0316 µM, first compound 0.00316 µM
[15] = second compound 0.0316 µM, first compound 0.00999 µM
[16] = second compound 0.0316 µM, first compound 0.0999 µM
[17] = second compound 0.1 µM, first compound 0.000999 µM
[18] = second compound 0.1 µM, first compound 0.00316 µM
[19] = second compound 0.1 µM, first compound 0.00999 µM
[20] = second compound 0.1 µM, first compound 0.0999 µM
[21] = second compound 0.316 µM, first compound 0.000999 µM
[22] = second compound 0.316 µM, first compound 0.00316 µM
[23] = second compound 0.316 µM, first compound 0.00999 µM
[24] = second compound 0.316 µM, first compound 0.0999 µM
[25] = second compound 1 µM, first compound 0.000999 µM
[26] = second compound 1 µM, first compound 0.00316 µM
[27] = second compound 1 µM, first compound 0.00999 µM
[28] = second compound 1 µM, first compound 0.0999 µM
[29] = second compound 3.16 µM, first compound 0.000999 µM
[30] = second compound 3.16 µM, first compound 0.00316 µM
[31] = second compound 3.16 µM, first compound 0.00999 µM
[32] = second compound 3.16 µM, first compound 0.0999 µM
[33] = second compound 10 µM, first compound 0.000999 µM
[34] = second compound 10 µM, first compound 0.00316 µM
[35] = second compound 10 µM, first compound 0.00999 µM
[36] = second compound 10 µM, first compound 0.0999 µM
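Further: spheroids exposed to drugs for 7 days before viability reading.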
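Wherever viability, T/C is given: 100% = DMSO vehicle control viability.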

C=CC(=O)N1CCN(c2nc(=O)n(-c3c(C)ccnc3C(C)C)c3nc(-c4c(O)cccc4F)c(F)cc23)C(C)C1 (stereo unspecified) + CN(C)c1ccc(Nc2c3ccc(NC(=O)CCN4CCCC4)cc3nc3cc(NC(=O)CCN4CCCC4)ccc23)cc1
> 10000 nM: IC50 (second compound 0.0316 µM) | IC50 (second compound 0.1 µM) | IC50 (second compound 0.316 µM) | IC50 (second compound 1 µM) | IC50 (second compound 3.16 µM) | IC50 (second compound 10 µM)
inactive: viability, T/C [1] 114% | viability, T/C (second compound 0.0316 µM, first compound 0.1 µM) 94.2% | viability, T/C [2] 112% | viability, T/C (second compound 0.0316 µM, first compound 1 µM) 101% | viability, T/C (second compound 0.0316 µM, first compound 3.16 µM) 98.2% | viability, T/C (second compound 0.0316 µM, first compound 10 µM) 69.6% | viability, T/C [3] 110% | viability, T/C (second compound 0.1 µM, first compound 0.1 µM) 102% | viability, T/C [4] 96.9% | viability, T/C (second compound 0.1 µM, first compound 1 µM) 105% | viability, T/C (second compound 0.1 µM, first compound 3.16 µM) 103% | viability, T/C (second compound 0.1 µM, first compound 10 µM) 69.2% | viability, T/C [5] 110% | viability, T/C (second compound 0.316 µM, first compound 0.1 µM) 99.5% | viability, T/C [6] 98.8% | viability, T/C (second compound 0.316 µM, first compound 1 µM) 97.3% | viability, T/C (second compound 0.316 µM, first compound 3.16 µM) 96.9% | viability, T/C (second compound 0.316 µM, first compound 10 µM) 77.9% | viability, T/C [7] 96.2% | viability, T/C (second compound 1 µM, first compound 0.1 µM) 108% | viability, T/C [8] 103% | viability, T/C (second compound 1 µM, first compound 1 µM) 103% | viability, T/C (second compound 1 µM, first compound 3.16 µM) 93.7% | viability, T/C (second compound 1 µM, first compound 10 µM) 83.6% | viability, T/C [9] 86.6% | viability, T/C (second compound 3.16 µM, first compound 0.1 µM) 103% | viability, T/C [10] 94.2% | viability, T/C (second compound 3.16 µM, first compound 1 µM) 92.1% | viability, T/C (second compound 3.16 µM, first compound 3.16 µM) 111% | viability, T/C (second compound 3.16 µM, first compound 10 µM) 67.6% | viability, T/C [11] 71.3% | viability, T/C (second compound 10 µM, first compound 0.1 µM) 70.3% | viability, T/C [12] 77.2% | viability, T/C (second compound 10 µM, first compound 1 µM) 75.6% | viability, T/C (second compound 10 µM, first compound 3.16 µM) 76.3% | viability, T/C (second compound 10 µM, first compound 10 µM) 58.3%

CCc1c2c(nc3ccc(O)cc13)-c1cc3c(c(=O)n1C2)COC(=O)[C@]3(O)CC + CN(C)c1ccc(Nc2c3ccc(NC(=O)CCN4CCCC4)cc3nc3cc(NC(=O)CCN4CCCC4)ccc23)cc1
inactive: viability, T/C [13] 66.2% | viability, T/C [14] 54.6% | viability, T/C [15] 43.2% | viability, T/C [1] 28.7% | viability, T/C [16] 16.5% | viability, T/C [17] 60.4% | viability, T/C [18] 51.8% | viability, T/C [19] 41.3% | viability, T/C [3] 28.5% | viability, T/C [20] 15.6% | viability, T/C [21] 61.8% | viability, T/C [22] 50.7% | viability, T/C [23] 39.1% | viability, T/C [5] 28.9% | viability, T/C [24] 15.4% | viability, T/C [25] 61.1% | viability, T/C [26] 57% | viability, T/C [27] 47.5% | viability, T/C [7] 32.3% | viability, T/C [28] 16.7% | viability, T/C [29] 58.6% | viability, T/C [30] 54.7% | viability, T/C [31] 46.6% | viability, T/C [9] 31.1% | viability, T/C [32] 21.4% | viability, T/C [33] 52.9% | viability, T/C [34] 52.7% | viability, T/C [35] 44% | viability, T/C [11] 32.6% | viability, T/C [36] 20.9% | viability, T/C [12] 9.92%
active: viability, T/C [2] 7.38% | viability, T/C [4] 9.53% | viability, T/C [6] 8.17% | viability, T/C [8] 7.43% | viability, T/C [10] 9.32%
3.51 nM: IC50 (second compound 0.316 µM)
5.64 nM: IC50 (second compound 3.16 µM)
7.44 nM: IC50 (second compound 1 µM)
4.06 nM: IC50 (second compound 0.1 µM)
3.75 nM: IC50 (second compound 10 µM)
5.08 nM: IC50 (second compound 0.0316 µM)

Cn1ncnc1[C@H]1c2n[nH]c(=O)c3cc(F)cc(c23)N[C@@H]1c1ccc(F)cc1 + CN(C)c1ccc(Nc2c3ccc(NC(=O)CCN4CCCC4)cc3nc3cc(NC(=O)CCN4CCCC4)ccc23)cc1
> 316 nM: IC50 (second compound 0.0316 µM) | IC50 (second compound 0.1 µM) | IC50 (second compound 0.316 µM) | IC50 (second compound 1 µM) | IC50 (second compound 3.16 µM) | IC50 (second compound 10 µM)
inactive: viability, T/C [13] 106% | viability, T/C [14] 89.4% | viability, T/C [15] 90.6% | viability, T/C [1] 84.8% | viability, T/C [16] 99.6% | viability, T/C [2] 80.5% | viability, T/C [17] 98.4% | viability, T/C [18] 92.1% | viability, T/C [19] 96.6% | viability, T/C [3] 94.7% | viability, T/C [20] 86.6% | viability, T/C [4] 93.5% | viability, T/C [21] 104% | viability, T/C [22] 97.9% | viability, T/C [23] 102% | viability, T/C [5] 94.6% | viability, T/C [24] 83.4% | viability, T/C [6] 80% | viability, T/C [25] 92.4% | viability, T/C [26] 89.5% | viability, T/C [27] 99.8% | viability, T/C [7] 85.1% | viability, T/C [28] 95% | viability, T/C [8] 76.1% | viability, T/C [29] 94% | viability, T/C [30] 97% | viability, T/C [31] 98.4% | viability, T/C [9] 85.5% | viability, T/C [32] 92.6% | viability, T/C [10] 80.8% | viability, T/C [33] 70.1% | viability, T/C [34] 58.9% | viability, T/C [35] 67.3% | viability, T/C [11] 64.9% | viability, T/C [36] 61.5% | viability, T/C [12] 60.2%
